Read-outs that look alike come from different tables or passages of the source.
What was measured:
EcUbiX = biological target: T1, EcUbiX (Escherichia coli, UniProt P0AG03); assay: UV-Vis single turnover; type: biochemical
T1 construct: gene ubiX
T1 sequence (P0AG03 1-189): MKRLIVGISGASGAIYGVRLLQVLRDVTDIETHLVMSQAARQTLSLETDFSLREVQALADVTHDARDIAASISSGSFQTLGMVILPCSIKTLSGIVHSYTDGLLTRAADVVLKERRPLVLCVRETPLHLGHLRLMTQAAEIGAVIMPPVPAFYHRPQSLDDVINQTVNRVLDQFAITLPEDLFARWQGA

AnUbiX [1] = biological target: T2, AnUbiX (Aspergillus niger, UniProt A3F715); assay: crystal structure; type: binding
T2 construct: gene PAD1
T2 sequence (A3F715 1-227): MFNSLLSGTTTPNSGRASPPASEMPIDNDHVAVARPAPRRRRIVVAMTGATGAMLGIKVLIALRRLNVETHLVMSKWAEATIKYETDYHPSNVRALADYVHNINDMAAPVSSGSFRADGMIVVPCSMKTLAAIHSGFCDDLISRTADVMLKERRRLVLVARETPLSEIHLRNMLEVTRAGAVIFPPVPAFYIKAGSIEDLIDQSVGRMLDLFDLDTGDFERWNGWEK

AnUbiX [2] = biological target: T2, AnUbiX; assay: UV-Vis single turnover; type: biochemical

In the case of `CC(C)=CCOP(=O)(O)OP(=O)(O)O` [DMAPP], the UV-Vis single turnover (EcUbiX; 2 mM DMAPP, FMNH2, pH 8, prFMN formed) is reported as “is only able to catalyse DMAPP-specific prFMNH2 formation under the conditions tested” and the crystal structure (AnUbiX [1]; co-purified, no exogenous DMAPP added, with oxidised FMN, pH 6.2) is reported as “electron density directly located above the oxidised FMN that corresponds to a bound DMAPP”.

With `CC(C)=CCOP(=O)(O)O` [DMAP] the UV-Vis single turnover (AnUbiX [2]) was “Crucially, DMAP incubation does affect the resulting FMN spectrum” and the UV-Vis single turnover (EcUbiX) was “AnUbiX and EcUbiX appear to catalyse the prenyltransferase step with DMAP”.

For `Cc1cc2nc3c(=O)[nH]c(=O)nc-3n(C[C@H](O)[C@H](O)[C@H](O)COP(=O)(O)O)c2cc1C` [FMN], the crystal structure (AnUbiX [1]) was “The crystal structure of AnUbiX in complex with FMN and DMAPP”.

From publication PMC6541611, “The UbiX flavin prenyltransferase reaction mechanism resembles class I terpene cyclase chemistry” (Nature Communications, 2019)
